# Test results from patent publication US5916872A, “Cyclic peptides having broad spectrum antimicrobial activity” (IntraBiotics Pharmaceuticals, Inc., priority 1996, dated 1999).
# Positions of bridges follow the written chain, without caps; N, C: chain ends. Residues, ends and D or L forms follow the SMILES beside them.
# Columns and labels:
# Assay type in all cases: cell-based
# [1] = system: MRSA (methicillin resistant Staphylococcus aureus); assay: Modified NCCLS minimum inhibitory concentration (MIC) assay; details: Table 4
# Description: (§1) Microorganisms: Escherichia coli ML-35p and vancomycin-resistant Enterococcus faecium (VRE) were obtained from Dr. Robert Lehrer (UCLA, see also, Lehrer et al., 1988, J. Immunol. Methods 108:153) and Dr. Gary Schoolnik (Stanford), respectively. Pseudomonas aeruginosa (ATCC 9027), Candida albicans (ATCC 1023), and methicillin resistant Staphylococcus aureus (ATCC 33591) were obtained from the American Type Culture Collection, Rockville, Md.
# (§2) 8.3 Modified NCCLS Minimum Inhibitory Concentration (MIC) Assay
# (§3) The National Committee for Clinical Standards (NCCLS) requires that test compounds be prepared as stock solutions in Meuller-Hinton Broth ("MHB") at 512 μg/mL. The stock solutions are serially diluted (two-fold) in medium and each serial dilution added 1:1 to medium containing 1×10^6 CFU/mL bacteria (National Committee on Clinical Laboratory Standards, December 1994, "Performance Standards for Antimicrobial Susceptibility Testing," NCCLS Document M100-S5 Vol. 14, No. 16; Methods for Dilution Antimicrobial Susceptibility Test for Bacteria that Grow Aerobically, 3d Ed., Approved Standard M7-A3, National Committee for Clinical Standards, Villanova, Pa.).
# (§4) Thus, following the NCCLS protocol would result in serial two-fold dilutions containing less peptide than calculated, yielding erroneously high MIC values.
# (§5) To overcome this problem, the following modified NCCLS assay is the preferred method for determining MICs of the cyclic peptides of the invention.
# (§6) Preparation of MIC assay plates:
# (§7) 1. Prepare a fresh overnight culture of test organism in Meuller-Hinton broth (MHB; Becton-Dickinson, Cockysville, Md., BB2 #11443).
# (§8) 2. Dilute the culture to approximately 4×10^5 CFUs/mL with fresh MHB and dispense 100 μL aliquots into each well of a sterile 96-well microtiter plate.
# (§9) 3. From the peptide stock solution, prepare serial two-fold dilutions (from 1280 μg/mL to 0.625 μg/mL) using acetic acid (0.01%) as a diluent, or, for peptide concentrations lower than 50 μg/mL, sodium acetate (10 mM, pH 5) containing Human Serum Albumin (HSA; 0.1% w/v) as a diluent.
# (§10) 4. Dispense triplicate aliquots (11 μL) of each serial dilution into the wells of the microtiter plate.
# (§11) 5. Incubate the plate for 16-18 hours, without aeration, at 37° C. (bacteria) or 30° C. (yeast).
# (§12) 6. Examine the plates and evaluate each well for turbidity (cell growth). Often, MRSA will settle out and form a pellet at the bottom of the well. MRSA can be evaluated by placing the microtiter plate on a stand and examining the bottom of the well using a tilted mirror.
# (§13) 7. The minimum inhibitory concentration (MIC) is defined as the lowest peptide concentration that inhibits all visible growth. If the MIC values for each of the triplicate samples differ, the MIC is obtained by averaging the results of the three samples. […]
# Pseudomonas aeruginosa = assay: as above; details: Table 4; Psa is Pseudomonas aeruginosa
# Description: as §1, §2, §3, §4, §5, §6, §7, §8, §9, §10, §11, §12, §13
# [2] = system: MRSA (methicillin resistant Staphylococcus aureus); assay: Kinetic bactericidal assay; details: 2 μg/mL peptide, from an initial value of 3.3 × 10^5 CFUs
# Description: as §1
# 8.4 Kinetic Bactericidal Assay
# The following assay is used to determine the rate at which a cyclic peptide kills a target microorganism, as well as to determine if a cyclic peptide is bactericidal or bacteriostatic.
# 1. Dispense 200 μL of log-phase cells in LTM (4×10^5 CFUs/mL) into each well of a 96-well microtiter plate solution.
# 2. At time T=0 minutes, add 22 μL of 1280 μg/mL peptide to well A1 and mix by triturating 3 times.
# 3. Wait 30 seconds and add 22 μL of a second concentration of peptide the to the next well (A2) and mix by triturating 3 times.
# 4. Repeat the process, staggering each peptide addition by 30 seconds, until all concentrations of peptide have been added. Typically, 4-fold serial dilutions of stock peptide (i.e., 1280, 320, 80, 20 and 5 μg/mL peptide diluted 1:10 into each well) produces good comparative kill curves. Add 22 μL of 0.01% acetic acid to one well as a control.
# 5. At time T=15 minutes, mix well A1 by triturating 3 times and transfer 20 μL to an empty sterile petri dish (100 mm×15 mm).
# 6. Quickly add 20 mL of tempered (50° C.) TSA and gently swirl plate to mix.
# 7. Repeat steps 5-6 until all peptide concentrations have been plated.
# 8. For the control well, dilute the sample 1:100 with LTM and plate 50 μL of the dilution to obtain an accurate determinations of CFUs.
# 9. After the agar has solidified, invert the plates and incubate at 37° C. (bacteria) 30° C. (yeast) for 18-24 hours.
# 10. Repeat steps 5-9 for all peptide concentrations and control samples at times T=30, 60, 120, and 240 minutes.
# 11. Count the number of CFUs per plate and estimate the reduction in CFUs for each peptide concentration. In order to assess an effect using this assay, the peptide must reduce the CFUs by at least one log (i.e., at least 800 CFUs per plate). Although such numbers are higher than recommended for accuracy (30-300 CFUs/plate), log-order changes in recoverable CFUs indicate significant bacteriocidal efficacy.
# 12. To obtain comparative kill curves, plot the log of fractional survival versus peptide concentration.
Compound,MIC Values MRSA [1] [µg/mL],MIC Values Psa (Pseudomonas aeruginosa) [µg/mL],MRSA Kill Kinetics 15 min [2] [log reduction],MRSA Kill Kinetics 120 min [2] [log reduction]
WLCYCRRRFCVCVGR,32,32,< 0.46,< 0.46
"CC(C)[C@@H]1NC(=O)[C@@H]2CSSC[C@H](NC(=O)[C@H](Cc3ccc(O)cc3)NC(=O)[C@H](Cc3c[nH]c4ccccc34)NC1=O)C(=O)N[C@@H](Cc1ccc(O)cc1)C(=O)N[C@H]1CSSC[C@H](NC(=O)[C@H](Cc3ccccc3)NC(=O)[C@H](CCCNC(=N)N)NC(=O)[C@H](CCCNC(=N)N)NC(=O)[C@H](CCCNC(=N)N)NC1=O)C(=O)N[C@@H](C(C)C)C(=O)N2 [cyco(CYCRRRFCVCVWY), cyclo(CYCRRRFCVCVWY)] (cyclo(CRRRFCVCVWYCY); disulfide 1-6, 8-12)",8,32,–,–
"CC(C)C[C@@H]1NC(=O)[C@H](CCCNC(=N)N)NC(=O)[C@H](C(C)C)NC(=O)[C@@H]2CSSC[C@H](NC1=O)C(=O)N[C@@H](Cc1ccc(O)cc1)C(=O)N[C@H]1CSSC[C@H](NC(=O)[C@H](Cc3ccccc3)NC(=O)[C@H](CCCNC(=N)N)NC(=O)[C@H](CCCNC(=N)N)NC(=O)[C@H](CCCNC(=N)N)NC1=O)C(=O)N[C@@H](C(C)C)C(=O)N2 [cyclo(CYCRRRFCVCVRL)] (cyclo(CRRRFCVCVRLCY); disulfide 1-6, 8-12)",16,2.67,–,–
"CC(C)C[C@@H]1NC(=O)[C@H](Cc2c[nH]c3ccccc23)NC(=O)[C@H](C(C)C)NC(=O)[C@@H]2CSSC[C@H](NC1=O)C(=O)N[C@@H](Cc1ccc(O)cc1)C(=O)N[C@H]1CSSC[C@H](NC(=O)[C@H](Cc3ccccc3)NC(=O)[C@H](CCCNC(=N)N)NC(=O)[C@H](CCCNC(=N)N)NC(=O)[C@H](CCCNC(=N)N)NC1=O)C(=O)N[C@@H](C(C)C)C(=O)N2 [cyclo(CYCRRRFCVCVWL)] (cyclo(CRRRFCVCVWLCY); disulfide 1-6, 8-12)",4,> 32,2.65,2.18
"CC(C)C[C@@H]1NC(=O)[C@H](CCCNC(=N)N)NC(=O)CNC(=O)CNC(=O)[C@H](CCCNC(=N)N)NC(=O)[C@H](CCCNC(=N)N)NC(=O)CNC(=O)[C@H](C(C)C)NC(=O)[C@@H]2CSSC[C@H](NC1=O)C(=O)N[C@@H](Cc1ccc(O)cc1)C(=O)N[C@H]1CSSC[C@H](NC(=O)[C@H](Cc3ccccc3)NC(=O)[C@H](CCCNC(=N)N)NC(=O)[C@H](CCCNC(=N)N)NC(=O)[C@H](CCCNC(=N)N)NC1=O)C(=O)N[C@@H](C(C)C)C(=O)N2 [cyclo(CYCRRRFCVCVGRRGGRL)] (cyclo(GGRLCYCRRRFCVCVGRR); disulfide 5-14, 7-12)",5.33,8,1.2,1.17
WYCYCRRRFCVCV,43,32,–,–
RLCYCRRRFCVCVV [RLCYCRRRFCVCVV.dagger.],2,4,–,–
WLCYCRRRFCVCV,32,13,–,–
WLCYCRRRFCVCV [WLCYCRRRFCVCV.dagger.],3.33,> 32,2.12,2.89
RGGRLCYCRRRFCVCVGR,4,0.5,–,–
WLCYCRRRFCVCVGR [WLCYCRRRFCVCVGR.dagger.],–,–,1.79,2.26
RLCYCRRRFCVCV,10.7,2,–,–
